# Measured values reported in patent publication US20240368225A1, “SELECTIVE SMALL MOLECULE AGONISTS AND PARTIAL AGONISTS OF TRK RECEPTORS” (THE TEXAS A&M UNIVERSITY SYSTEM, priority 2021, published 2024).
# Read-outs that look alike come from different tables or passages of the source. *1 amine or outer side, *2 acyl side, *3 side chain or, on linkers, in order; H or OH if unused. Where a SMILES comes first, the peptide text is derived from it. Bridges are numbered along the chain shown (N, C = ends). X1 = COc1ccc(C2=C3C=C(S(=O)(=O)O)C([*:1])=[N+]3[B-](F)(F)n3c2cc(S(=O)(=O)O)c3[*:2])cc1
# Columns and labels:
# HeLa-TrkA cells = type: cell-based
# Procedure: (§1) Cells were seeded at a density of 2000 cells per well. Cells were incubated in complete media for 24 hours. The media was aspirated, the cells washed twice with Dulbecco's Phosphate Buffered Saline, and the media was replaced with serum-free media to induce apoptosis unless otherwise halted. […] Cell survival was measured via alamarBlue assay after 48-72 hours to determine cell viability.
# (§2) The most promising compounds from the screen were selected for each cell line. Cells were treated with a serial dilution of the compound in serum free media with or without suboptimal neurotrophin and incubated for 48-72 hours, after which an alamarBlue assay was done to determine cell viability. Cell viability was normalized to DMSO (0%) and optimal neurotrophin (100%), depending on cell type. EC50 was calculated in Graphpad Prism using the dose response “[agonist] vs response—Variable slope” function. Data is presented as the mean +/−standard deviation of an experiment with 3-6 replicates. Results for selected compounds with HeLa-TrkA cells can be found in FIG. 19A-19D. Results for selected compounds with HEK293-TrkB cells can be found in FIG. 20A-20C. Results for selected compounds with NIH3T3-TrkC cells can be found in FIG. 21A-21D.
# NIH3T3-TrkC cells = type: cell-based; settings: NIH3T3-TrkC cell survival
# Procedure: as §1
# Cells were treated with a serial dilution of the compound in serum free media with or without suboptimal neurotrophin and incubated for 48-72 hours, after which an alamarBlue assay was done to determine cell viability. Cell viability was normalized to DMSO (0%) and optimal neurotrophin (100%), depending on cell type. EC50 was calculated in Graphpad Prism using the dose response “[agonist] vs response—Variable slope” function. Data is presented as the mean +/−standard deviation of an experiment with 3-6 replicates.
# HEK293-TrkB cells = HEK293-TrkB cells (Homo sapiens, UniProt Q16620); assay: HEK293-TrkB cell survival dose response (alamarBlue); type: cell-based; settings: for EC50: EC50, HEK293-TrkB cell survival, serum-free media, 48-72 hours; for Partial or True Agonism: HEK293-TrkB cell survival
# Chain of HEK293-TrkB cells (Q16620 32-822): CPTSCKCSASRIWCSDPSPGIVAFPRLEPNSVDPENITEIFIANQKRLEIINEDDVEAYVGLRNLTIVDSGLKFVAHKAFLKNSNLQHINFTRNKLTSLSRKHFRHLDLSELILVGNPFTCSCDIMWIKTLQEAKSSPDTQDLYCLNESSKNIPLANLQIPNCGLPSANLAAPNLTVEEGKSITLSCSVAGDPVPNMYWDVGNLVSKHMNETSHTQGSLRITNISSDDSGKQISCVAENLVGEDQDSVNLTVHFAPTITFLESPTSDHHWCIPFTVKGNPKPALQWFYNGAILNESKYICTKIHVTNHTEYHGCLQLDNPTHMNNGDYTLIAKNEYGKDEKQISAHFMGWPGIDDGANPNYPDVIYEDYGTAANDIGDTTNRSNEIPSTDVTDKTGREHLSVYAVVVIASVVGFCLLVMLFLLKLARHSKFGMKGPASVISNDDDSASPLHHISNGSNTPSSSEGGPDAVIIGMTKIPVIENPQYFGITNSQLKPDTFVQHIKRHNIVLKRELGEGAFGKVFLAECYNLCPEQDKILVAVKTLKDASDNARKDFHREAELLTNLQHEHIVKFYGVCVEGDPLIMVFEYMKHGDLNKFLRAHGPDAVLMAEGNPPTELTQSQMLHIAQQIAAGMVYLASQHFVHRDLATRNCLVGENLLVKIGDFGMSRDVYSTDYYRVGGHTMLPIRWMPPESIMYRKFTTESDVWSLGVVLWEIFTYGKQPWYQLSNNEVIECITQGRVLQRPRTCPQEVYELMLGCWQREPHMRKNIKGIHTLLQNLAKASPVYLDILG
# Procedure: as §1, §2
# TrkA = TrkA (Homo sapiens, UniProt P04629); settings: background statement; cited from earlier work
# Chain of TrkA (P04629 33-796, species assumed): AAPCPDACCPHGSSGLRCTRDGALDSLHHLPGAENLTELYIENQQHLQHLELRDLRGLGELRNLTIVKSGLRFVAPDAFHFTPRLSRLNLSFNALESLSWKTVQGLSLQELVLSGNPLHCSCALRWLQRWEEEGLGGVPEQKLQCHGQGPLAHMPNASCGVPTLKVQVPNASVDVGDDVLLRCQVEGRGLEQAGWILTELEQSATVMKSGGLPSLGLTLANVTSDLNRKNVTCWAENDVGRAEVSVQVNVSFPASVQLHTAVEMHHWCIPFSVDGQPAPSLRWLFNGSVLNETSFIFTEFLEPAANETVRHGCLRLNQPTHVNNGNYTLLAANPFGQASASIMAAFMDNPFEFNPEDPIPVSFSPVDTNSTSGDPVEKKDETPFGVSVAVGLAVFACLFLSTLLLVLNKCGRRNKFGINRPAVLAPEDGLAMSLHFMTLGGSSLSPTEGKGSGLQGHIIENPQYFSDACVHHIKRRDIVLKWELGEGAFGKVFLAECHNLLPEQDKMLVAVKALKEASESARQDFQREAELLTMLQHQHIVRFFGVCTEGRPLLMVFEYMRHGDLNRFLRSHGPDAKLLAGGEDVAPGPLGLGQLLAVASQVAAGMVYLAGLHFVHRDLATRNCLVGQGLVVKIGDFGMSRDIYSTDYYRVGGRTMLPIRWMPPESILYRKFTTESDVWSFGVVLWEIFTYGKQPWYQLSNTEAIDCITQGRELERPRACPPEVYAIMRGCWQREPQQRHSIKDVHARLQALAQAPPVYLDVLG
# TrkC = TrkC (Homo sapiens, UniProt Q16288); settings: background statement; cited from earlier work
# Chain of TrkC (Q16288 32-839, species assumed): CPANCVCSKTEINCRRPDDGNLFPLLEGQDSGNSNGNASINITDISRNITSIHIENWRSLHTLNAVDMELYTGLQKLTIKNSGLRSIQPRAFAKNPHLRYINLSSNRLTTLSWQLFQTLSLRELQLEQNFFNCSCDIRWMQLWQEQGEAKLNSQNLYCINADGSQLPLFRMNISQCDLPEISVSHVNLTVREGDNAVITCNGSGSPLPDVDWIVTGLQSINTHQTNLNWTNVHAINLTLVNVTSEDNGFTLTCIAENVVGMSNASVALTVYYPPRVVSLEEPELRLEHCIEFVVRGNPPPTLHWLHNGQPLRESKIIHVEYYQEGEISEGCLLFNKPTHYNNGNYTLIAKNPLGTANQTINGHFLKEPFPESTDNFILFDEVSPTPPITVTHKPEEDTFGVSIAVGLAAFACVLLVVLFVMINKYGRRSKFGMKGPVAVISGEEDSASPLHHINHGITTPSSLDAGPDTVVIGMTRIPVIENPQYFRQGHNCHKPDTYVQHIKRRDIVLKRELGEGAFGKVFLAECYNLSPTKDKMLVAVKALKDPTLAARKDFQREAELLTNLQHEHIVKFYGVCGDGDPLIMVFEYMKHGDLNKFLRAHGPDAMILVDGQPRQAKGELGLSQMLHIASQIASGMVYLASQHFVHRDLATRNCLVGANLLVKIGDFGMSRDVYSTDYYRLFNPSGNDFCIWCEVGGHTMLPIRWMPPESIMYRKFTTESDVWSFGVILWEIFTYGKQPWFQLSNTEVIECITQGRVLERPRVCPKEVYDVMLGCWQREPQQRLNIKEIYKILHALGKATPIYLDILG
# p75 = biological target: T1, p75 (Homo sapiens, UniProt P08138); settings: background statement; cited from earlier work
# T1 sequence (P08138 29-427): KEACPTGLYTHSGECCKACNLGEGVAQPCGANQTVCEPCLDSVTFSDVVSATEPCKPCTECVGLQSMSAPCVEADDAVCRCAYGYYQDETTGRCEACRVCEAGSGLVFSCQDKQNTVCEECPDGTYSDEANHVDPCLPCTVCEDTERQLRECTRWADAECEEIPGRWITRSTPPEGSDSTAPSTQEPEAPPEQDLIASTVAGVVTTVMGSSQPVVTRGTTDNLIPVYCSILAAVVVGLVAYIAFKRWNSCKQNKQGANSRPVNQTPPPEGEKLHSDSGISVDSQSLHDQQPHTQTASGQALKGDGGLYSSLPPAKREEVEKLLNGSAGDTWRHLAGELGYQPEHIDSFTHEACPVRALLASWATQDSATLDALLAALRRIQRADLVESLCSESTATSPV
# Goblet cells = settings: in vitro, background statement; cited from earlier work
# [1] = HeLa-TrkA cell survival, without suboptimal neurotrophin
# [2] = HeLa-TrkA cell survival, + 0.2 nM NGF
# [3] = HeLa-TrkA cell survival, serum-free media, + 0.2 nM NGF (suboptimal), 48-72 hours, read-out: EC50
# [4] = HeLa-TrkA cell survival, serum-free media, without suboptimal neurotrophin, 48-72 hours, read-out: EC50
# [5] = without suboptimal neurotrophin
Molecule,Partial or True Agonism (HeLa-TrkA cells; [1]),Partial or True Agonism (NIH3T3-TrkC cells; + 0.2 nM NT3),EC50 (HEK293-TrkB cells; + 0.6 nM BDNF (suboptimal)) [nM],EC50 (HEK293-TrkB cells; [5]) [nM],Partial or True Agonism (HEK293-TrkB cells; + 0.6 nM BDNF),Partial or True Agonism (HEK293-TrkB cells; [5]),other results
CC[C@H](C)[C@@H]1NC(=O)[C@H](CC(N)=O)NC(=O)C(C(C)C)n2cc(nn2)CC(C(=O)N[C@@H](CCCCNS(=O)(=O)c2cccc3c(N(C)C)cccc23)C(=O)O)NC(=O)[C@H](Cc2ccccc2)NC(=O)[C@H](C(C)C)NC(=O)[C@H](CO)NC(=O)[C@H](CC(N)=O)NC(=O)[C@H](CC(N)=O)NC1=O (stereo partly drawn) [1a(ii)ext],true,–,–,–,–,–,EC50 (HeLa-TrkA cells): 7.07 µM
CC[C@H](C)[C@@H]1NC(=O)[C@@H]2C[C@@H](CN2)NC(=O)[C@H](CO)NC(=O)[C@H](CC(N)=O)NC(=O)[C@H](CC(N)=O)NC1=O [3a(ii)],true,–,–,–,–,–,EC50 (HeLa-TrkA cells): 10 µM
CC[C@H](C)[C@@H]1NC(=O)[C@H](CC(=O)O)NC(=O)[C@@H]2C[C@@H](CN2)NC(=O)CNC(=O)[C@H](CCCNC(=N)N)NC1=O [3c(i)],–,partial,–,–,–,–,–
COc1ccc(C2=C3C=C(S(=O)(=O)O)C4=[N+]3[B-](F)(F)n3c2cc(S(=O)(=O)O)c3SC[C@@H](C(N)=O)NC(=O)[C@H](CCC(N)=O)NC(=O)[C@H](CCCCN)NC(=O)[C@H](CCC(=O)O)NC(=O)[C@H](CC(=O)O)NC(=O)[C@@H](NC(C)=O)CS4)cc1 [5a(iii)m] (Ac-CDEKQC-NH2; linker 1-6 via X1),true,–,–,–,–,–,Partial or True Agonism (HeLa-TrkA cells; [2]): partial; EC50 (HeLa-TrkA cells; [3]): 0.5 µM; EC50 (HeLa-TrkA cells; [4]): 2.4 µM
COc1ccc(C2=C3C=C(S(=O)(=O)O)C4=[N+]3[B-](F)(F)n3c2cc(S(=O)(=O)O)c3SC[C@@H](C(N)=O)NC(=O)CNC(=O)[C@H](CO)NC(=O)[C@H](CCSC)NC(=O)[C@H](CC(=O)O)NC(=O)[C@@H](NC(C)=O)CS4)cc1 [5b(i)] (Ac-CDMSGC-NH2; linker 1-6 via X1),–,–,1800,400,partial,true,–
COc1ccc(C2=C3C=C(S(=O)(=O)O)C4=[N+]3[B-](F)(F)n3c2cc(S(=O)(=O)O)c3SC[C@@H](C(N)=O)NC(=O)CNC(=O)[C@H](CCCCN)NC(=O)[C@H](CO)NC(=O)[C@H](C(C)C)NC(=O)[C@@H](NC(C)=O)CS4)cc1 [5b(ii)] (Ac-CVSKGC-NH2; linker 1-6 via X1),–,–,2800,900,partial,true,–
CC[C@H](C)[C@@H]1NC(=O)[C@H](CC(=O)O)NC(=O)[C@@H](NC(C)=O)CSC2=[N+]3C(=C(c4ccc(OC)cc4)c4cc(S(=O)(=O)O)c(n4[B-]3(F)F)SC[C@@H](C(N)=O)NC(=O)CNC(=O)[C@H](CCCNC(=N)N)NC1=O)C=C2S(=O)(=O)O [5c(i)] (Ac-CDIRGC-NH2; linker 1-6 via X1),–,partial,2200,100,partial,true,Partial or True Agonism (NIH3T3-TrkC cells; [5]): true
COc1ccc(C2=C3C=C(S(=O)(=O)O)C4=[N+]3[B-](F)(F)n3c2cc(S(=O)(=O)O)c3SC[C@@H](C(N)=O)NC(=O)[C@H](CO)NC(=O)[C@H](CC(N)=O)NC(=O)[C@H](CCC(N)=O)NC(=O)[C@H]([C@@H](C)O)NC(=O)[C@@H](NC(C)=O)CS4)cc1 [5c(ii)] (Ac-CTQNSC-NH2; linker 1-6 via X1),true,–,–,–,–,–,Partial or True Agonism (HeLa-TrkA cells; [2]): partial; EC50 (HeLa-TrkA cells; [3]): 0.3 µM; EC50 (HeLa-TrkA cells; [4]): 4.5 µM
COc1ccc(C2=C3C=C(S(=O)(=O)O)C4=[N+]3[B-](F)(F)n3c2cc(S(=O)(=O)O)c3SC[C@@H](C(N)=O)NC(=O)[C@H](CCCCN)NC(=O)[C@H](CC(N)=O)NC(=O)[C@H](CC(N)=O)NC(=O)[C@H](CCC(=O)O)NC(=O)[C@@H](NC(C)=O)CS4)cc1 [5c(iii)] (Ac-CENNKC-NH2; linker 1-6 via X1),–,partial,–,–,–,–,Partial or True Agonism (NIH3T3-TrkC cells; [5]): true
Tavilermide [D3],–,–,–,–,–,–,TrkA agonism (TrkA): partial TrkA agonist; TrkC binding (TrkC): does not bind TrkC; p75 activation (p75): does not activate p75; glycoconjugated mucin secretion (Goblet cells): increased glycoconjugated mucin secretion
